{"source": "ChEMBL document CHEMBL5230089", "about": "“Small-Molecule Fms-like Tyrosine Kinase 3 Inhibitors: An Attractive and Efficient Method for the Treatment of Acute Myeloid Leukemia” (J Med Chem, 2020)", "key": {"BaF3 [1]": {"system": "BaF3", "assay": "cells", "settings": "Mus musculus, BaF3, 72 h"}, "MOLM-14 [2]": {"system": "MOLM-14", "assay": "cells", "settings": "Homo sapiens, MOLM-14, 72 h"}, "MOLM-13 [3]": {"system": "MOLM-13", "assay": "cells", "settings": "Homo sapiens, MOLM-13, 72 h"}, "[4]": {"target": "Tyrosine-protein kinase JAK2 (Homo sapiens, UniProt O60674)", "sequence (O60674 whole entry)": "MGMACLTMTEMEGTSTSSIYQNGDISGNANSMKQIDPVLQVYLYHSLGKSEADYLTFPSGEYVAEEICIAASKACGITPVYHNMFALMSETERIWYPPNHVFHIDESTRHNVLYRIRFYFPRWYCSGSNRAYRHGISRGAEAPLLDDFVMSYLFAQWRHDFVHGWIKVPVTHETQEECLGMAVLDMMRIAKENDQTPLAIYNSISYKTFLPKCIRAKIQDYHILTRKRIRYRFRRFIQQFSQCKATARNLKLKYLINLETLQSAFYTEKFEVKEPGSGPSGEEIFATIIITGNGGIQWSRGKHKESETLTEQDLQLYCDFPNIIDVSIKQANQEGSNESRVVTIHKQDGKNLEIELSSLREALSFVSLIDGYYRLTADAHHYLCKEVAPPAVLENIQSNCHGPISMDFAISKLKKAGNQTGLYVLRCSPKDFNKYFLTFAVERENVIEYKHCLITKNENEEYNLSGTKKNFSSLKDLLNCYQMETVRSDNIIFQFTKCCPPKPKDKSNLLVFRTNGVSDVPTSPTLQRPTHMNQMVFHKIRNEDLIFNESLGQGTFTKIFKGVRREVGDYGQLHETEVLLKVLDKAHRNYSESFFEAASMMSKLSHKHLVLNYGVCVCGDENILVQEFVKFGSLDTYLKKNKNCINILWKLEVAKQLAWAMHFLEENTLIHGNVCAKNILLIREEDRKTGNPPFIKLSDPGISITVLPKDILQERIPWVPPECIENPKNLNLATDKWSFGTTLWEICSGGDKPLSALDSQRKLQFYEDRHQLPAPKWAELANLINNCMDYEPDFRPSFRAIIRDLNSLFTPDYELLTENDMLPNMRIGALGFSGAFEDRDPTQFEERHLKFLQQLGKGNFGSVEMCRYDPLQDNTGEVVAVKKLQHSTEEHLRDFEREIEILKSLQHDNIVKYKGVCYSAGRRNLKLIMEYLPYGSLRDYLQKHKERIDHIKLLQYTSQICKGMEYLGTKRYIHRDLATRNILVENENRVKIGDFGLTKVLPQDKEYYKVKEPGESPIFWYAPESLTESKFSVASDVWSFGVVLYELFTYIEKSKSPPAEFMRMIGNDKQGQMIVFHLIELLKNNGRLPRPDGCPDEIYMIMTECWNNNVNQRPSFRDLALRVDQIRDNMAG", "assay": "Inhibition of JAK2 (unknown origin) in presence of ATP"}, "MOLM-14 [5]": {"system": "MOLM-14", "assay": "Growth inhibition of human MOLM-14 cells incubated for 72 hrs by CCK-8 assay", "type": "functional"}, "MOLM-13 [6]": {"system": "MOLM-13", "assay": "Growth inhibition of human MOLM-13 cells incubated for 72 hrs by CCK-8 assay", "type": "functional"}, "MV4-11 [7]": {"system": "MV4-11", "assay": "Growth inhibition of human MV4-11 cells incubated for 72 hrs by CCK-8 assay", "type": "functional"}, "[8]": {"target": "T1, Receptor-type tyrosine-protein kinase FLT3 (Homo sapiens, UniProt P36888, ITD)"}, "MV4-11 [9]": {"system": "MV4-11", "assay": "Antiproliferative activity against human MV4-11 cells assessed as cell growth inhibition measured after 48 hrs by cell titer glo assay", "type": "functional, cell-based", "settings": "MV4-11, 48 h"}, "cells": {"assay": "cells", "settings": "Homo sapiens, TF cell, 72 h"}, "BaF3 [10]": {"system": "BaF3", "assay": "Antiproliferative activity against mouse BaF3 FLT3-D835 cells assessed as reduction in cell viability measured after 72 hrs by MTS assay", "type": "functional, cell-based", "settings": "BaF3, 72 h"}, "[11]": {"target": "T2, Receptor-type tyrosine-protein kinase FLT3 (Homo sapiens, UniProt P36888)", "T2 sequence (P36888 whole entry)": "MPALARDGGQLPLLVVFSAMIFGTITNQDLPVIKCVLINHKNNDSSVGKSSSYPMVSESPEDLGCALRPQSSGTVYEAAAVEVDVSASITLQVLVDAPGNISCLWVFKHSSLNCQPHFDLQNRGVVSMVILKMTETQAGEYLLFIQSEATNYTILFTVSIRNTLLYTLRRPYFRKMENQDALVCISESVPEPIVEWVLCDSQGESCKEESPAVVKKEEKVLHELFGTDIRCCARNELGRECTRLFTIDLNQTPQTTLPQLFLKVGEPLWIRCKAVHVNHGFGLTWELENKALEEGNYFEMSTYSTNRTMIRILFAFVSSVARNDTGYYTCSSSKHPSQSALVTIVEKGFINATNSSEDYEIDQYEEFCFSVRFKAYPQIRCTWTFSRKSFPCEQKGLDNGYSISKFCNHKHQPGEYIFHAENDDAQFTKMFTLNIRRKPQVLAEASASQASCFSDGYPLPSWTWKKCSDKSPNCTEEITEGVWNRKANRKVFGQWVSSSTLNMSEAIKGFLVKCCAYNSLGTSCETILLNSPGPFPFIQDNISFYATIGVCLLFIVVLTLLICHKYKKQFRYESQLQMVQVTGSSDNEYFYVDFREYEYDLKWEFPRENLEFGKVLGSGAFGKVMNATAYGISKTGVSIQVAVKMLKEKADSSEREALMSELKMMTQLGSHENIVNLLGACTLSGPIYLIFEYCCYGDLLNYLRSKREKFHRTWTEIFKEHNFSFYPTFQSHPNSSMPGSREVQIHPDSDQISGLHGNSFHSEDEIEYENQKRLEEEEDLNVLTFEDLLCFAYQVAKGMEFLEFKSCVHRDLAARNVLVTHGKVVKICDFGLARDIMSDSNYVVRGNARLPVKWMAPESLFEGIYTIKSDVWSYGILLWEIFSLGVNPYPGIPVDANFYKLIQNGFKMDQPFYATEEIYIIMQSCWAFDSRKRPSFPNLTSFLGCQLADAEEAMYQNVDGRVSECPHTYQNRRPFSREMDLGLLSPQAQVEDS", "assay": "Inhibition of FLT3 (unknown origin) autophosphorylation expressed in human Leukemia cells", "type": "cell-based, Leukemia cell"}, "MV4-11 [12]": {"system": "MV4-11", "assay": "Antiproliferative activity against human MV4-11 cells assessed as reduction in cell proliferation measured after 24 hrs by MTT assay", "type": "functional, cell-based", "settings": "MV4-11, 24 h"}, "MOLM-13 [13]": {"system": "MOLM-13", "assay": "cells", "settings": "Homo sapiens, MOLM-13, 72 h", "remark": "listed apart in the source", "description": "Cytotoxicity against human MOLM-13 cells assessed as reduction in cell viability incubated for 72 hrs"}, "MV4-11 [14]": {"system": "MV4-11", "assay": "cells", "settings": "Homo sapiens, MV4-11, 48 h", "description": "Antiproliferative activity against human MV4-11 cells assessed as reduction in cell viability after 48 hrs by Alamar Blue assay"}, "Aurora kinase A": {"target": "T3, Aurora kinase A (Homo sapiens, UniProt O14965)", "T3 sequence (O14965 whole entry)": "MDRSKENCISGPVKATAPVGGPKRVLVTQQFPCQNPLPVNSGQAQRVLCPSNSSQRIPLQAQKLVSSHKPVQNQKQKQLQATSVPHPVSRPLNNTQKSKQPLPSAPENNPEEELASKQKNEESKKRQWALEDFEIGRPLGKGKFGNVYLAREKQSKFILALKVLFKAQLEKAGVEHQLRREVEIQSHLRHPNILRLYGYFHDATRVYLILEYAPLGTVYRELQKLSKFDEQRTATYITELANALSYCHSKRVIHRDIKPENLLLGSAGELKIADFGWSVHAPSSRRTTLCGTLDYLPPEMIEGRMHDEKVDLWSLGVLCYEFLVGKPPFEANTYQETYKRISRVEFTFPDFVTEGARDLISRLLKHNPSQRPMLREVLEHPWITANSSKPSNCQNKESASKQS", "assay": "Inhibition of Aurora-A (unknown origin)"}, "MOLM-14 [15]": {"system": "MOLM-14", "assay": "Cytotoxicity against human MOLM-14 cells assessed as reduction in cell viability incubated for 72 hrs", "type": "functional, cell-based", "settings": "MOLM-14, 72 h"}, "697": {"system": "697", "assay": "Cytotoxicity activity against human 697 cells assessed as reduction cell viability at 50 uM incubated for 48 hrs by ATP-glo assay", "type": "functional, cell-based", "settings": "Homo sapiens, 697, 48 h"}, "RS4-11": {"system": "RS4-11", "assay": "Growth inhibition human RS4-11 cell assessed as reduction in cell viability at 50 uM measured after 72 hrs by CCK8 assay", "type": "functional"}, "[16]": {"target": "T2, Receptor-type tyrosine-protein kinase FLT3", "assay": "Inhibition of FLT3 (unknown origin)"}, "MV4-11 [17]": {"system": "MV4-11", "assay": "Growth inhibition of human MV4-11 cells assessed as reduction in cell viability at 50 uM measured after 72 hrs by CCK8 assay", "type": "functional"}, "MV4-11 [18]": {"system": "MV4-11", "assay": "Antiproliferative activity against human MV4-11 cells assessed as cell growth inhibition measured after 72 hrs by cell titer-Blue assay", "type": "functional, cell-based", "settings": "MV4-11, 72 h"}, "[19]": {"target": "Receptor-type tyrosine-protein kinase FLT3 (Homo sapiens, UniProt P36888, D835Y)", "assay": "Inhibition of FLT3-D835Y mutant phosphorylation in human MOLM-14 cell incubated for 2 hrs", "type": "cell-based"}, "[20]": {"target": "T1, Receptor-type tyrosine-protein kinase FLT3", "assay": "Inhibition of FLT3-ITD mutant phosphorylation in human MOLM-14 cell incubated for 2 hrs", "type": "cell-based"}, "MOLM-14 [21]": {"system": "MOLM-14", "assay": "Antiproliferative activity against human MOLM-14 cells assessed as cell growth inhibition measured after 72 hrs by cell titer-Blue assay", "type": "functional, cell-based", "settings": "MOLM-14, 72 h"}, "BaF3 [22]": {"system": "BaF3", "assay": "cells", "settings": "Mus musculus, BaF3, 72 h", "remark": "listed apart in the source"}, "BaF3 [23]": {"system": "BaF3", "assay": "cells", "settings": "Mus musculus, BaF3, 72 h", "remark": "listed apart in the source"}}, "note": "pIC50: −log10 of the molar value."}
{"molecule": "COc1cc2c(N3CCN(C(=O)Nc4ccc(OC(C)C)cc4)CC3)ncnc2cc1OCCCN1CCCCC1", "note": "[TANDUTINIB]", "values": [{"measurement": "pIC50", "setting": "BaF3 [1]", "result": 8.00}, {"measurement": "pIC50", "setting": "MOLM-14 [2]", "result": 8.00}, {"measurement": "pIC50", "setting": "MOLM-13 [3]", "result": 8.00}]}
{"molecule": "Cn1c2ccccc2c2c3c(c4c5ccccc5n(CCC#N)c4c21)CNC3=O", "note": "[GO-6976]", "values": [{"measurement": "pIC50", "setting": "[4]", "result": 7.17}]}
{"molecule": "CN(C)CC(=O)N1CCC[C@@H](n2nc(-c3ccc(Oc4ccccc4)cc3)c3c(N)ncnc32)C1", "values": [{"measurement": "GI50", "setting": "MOLM-14 [5]", "result": 42, "unit": "nM"}, {"measurement": "GI50", "setting": "MOLM-13 [6]", "result": 21, "unit": "nM"}, {"measurement": "GI50", "setting": "MV4-11 [7]", "result": 22, "unit": "nM"}]}
{"molecule": "CCCNc1nc(Nc2ccc(C#N)cc2)ncc1C#CCCCNC(=O)[C@H](C)N(C)C(=O)/C=C/CN(C)C", "note": "[FF-10101]", "values": [{"measurement": "GI50", "setting": "MOLM-14 [5]", "result": 1.5, "unit": "nM"}, {"measurement": "GI50", "setting": "MOLM-13 [6]", "result": 1.1, "unit": "nM"}, {"measurement": "GI50", "setting": "MV4-11 [7]", "result": 0.83, "unit": "nM"}]}
{"molecule": "COc1cc(Nc2nc3cccc(-c4cccc(C(N)=O)c4)c3o2)ccc1N1CCNCC1", "values": [{"measurement": "pIC50", "setting": "[8]", "result": 9.39}, {"measurement": "pIC50", "setting": "MV4-11 [9]", "result": 7.43}]}
{"molecule": "CC(C)(C)c1cc(NC(=O)Nc2ccc(-n3nc(-c4ccc(OCCN5CCOCC5)cc4)c4c(N)ncnc43)cc2)no1", "values": [{"measurement": "GI50", "setting": "MV4-11 [7]", "result": "< 0.3", "unit": "nM"}]}
{"molecule": "CCc1nc(C(N)=O)c(Nc2ccc(N3CCC(N4CCN(C)CC4)CC3)c(OC)c2)nc1NC1CCOCC1", "note": "[GILTERITINIB]", "values": [{"measurement": "pIC50", "setting": "cells", "result": 8.85}, {"measurement": "pIC50", "setting": "BaF3 [10]", "result": 9.15}, {"measurement": "pIC50", "setting": "MOLM-14 [2]", "result": 8.74}]}
{"molecule": "CNC(=O)[C@@]1(N)C[C@H]2O[C@]1(C)n1c3ccccc3c3c4c(c5c6ccccc6n2c5c31)C(=O)NC4", "values": [{"measurement": "pIC50", "setting": "[11]", "result": 10.00}, {"measurement": "pIC50", "setting": "MV4-11 [12]", "result": "> 9.60"}]}
{"molecule": "CC(C)(C)c1cc(NC(=O)Nc2ncc(CCNc3ncnc4[nH]c(-c5ccccc5)cc34)s2)no1", "values": [{"measurement": "pIC50", "setting": "[8]", "result": 7.17}, {"measurement": "pIC50", "setting": "MOLM-13 [13]", "result": 8.15}, {"measurement": "pIC50", "setting": "MV4-11 [14]", "result": 8.15}, {"measurement": "pIC50", "setting": "Aurora kinase A", "result": 7.82}]}
{"molecule": "CCCCNc1ncc2c(-c3ccc(CN4CCN(C)CC4)cc3)cn([C@H]3CC[C@H](O)CC3)c2n1", "values": [{"measurement": "pIC50", "setting": "MOLM-14 [15]", "result": 7.85}, {"measurement": "pIC50", "setting": "697", "result": 8.57}]}
{"molecule": "O=C(c1ccc(CN2CCCCC2)cc1)N1CCc2nc(-c3cc4cc(F)ccc4[nH]c3=O)[nH]c2C1", "values": [{"measurement": "GI50", "setting": "RS4-11", "result": 4860, "unit": "nM"}, {"measurement": "pIC50", "setting": "[16]", "result": 9.24}, {"measurement": "GI50", "setting": "MV4-11 [17]", "result": 260, "unit": "nM"}]}
{"molecule": "Cc1ncc(C(=O)Nc2ccc(CN3CCN(C)CC3)c(C(F)(F)F)c2)cc1C#Cc1c(N)ncc2ccc(F)cc12", "values": [{"measurement": "pIC50", "setting": "MV4-11 [18]", "result": 9.30}, {"measurement": "pIC50", "setting": "[19]", "result": 7.78}, {"measurement": "pIC50", "setting": "[20]", "result": 9.30}, {"measurement": "pIC50", "setting": "MOLM-14 [21]", "result": 9.30}]}
{"molecule": "CN1CCC(Nc2nc(Nc3ccc(Oc4ccccc4)cc3)c3c(=O)[nH]cc(Br)c3n2)CC1", "note": "[DENFIVONTINIB]", "values": [{"measurement": "pIC50", "setting": "BaF3 [22]", "result": 7.42}, {"measurement": "pIC50", "setting": "MV4-11 [14]", "result": 8.46}, {"measurement": "pIC50", "setting": "MOLM-14 [2]", "result": 8.12}, {"measurement": "pIC50", "setting": "BaF3 [23]", "result": 7.67}]}
